Patent publication US20240108740A1, “THERAPEUTIC COMPOSITIONS INCLUDING SPN10 AND USES THEREOF” (Stealth BioTherapeutics Inc., priority 2022, published 2024)
Residues, ends and D or L forms follow the SMILES beside them.

Columns and labels:
hind limb casted mice = assay: Hind limb immobilization (casting) induced skeletal muscle atrophy; type: in vivo, mouse
Description: 2. […] Casted mice will receive an i.p. injection of saline vehicle (0.3 mL), peptide conjugate, aromatic-cationic peptide, SPN10, or SPN10 with aromatic-cationic peptides. A control group of untreated mice will be also used in this experiment.
Subjects will receive s.c. injections of saline vehicle (0.3 mL) or the peptide conjugate, aromatic-cationic peptide or SPN10 (alone or in combination with aromatic-cationic peptides) (1.5 mg/kg for the peptide conjugate and equivalent molar doses of aromatic-cationic peptide and/or SPN10 based on concentration of the aromatic-cationic peptide or SPN10 administered in the peptide conjugate group) administered once daily during the immobilization period.
Immobilization. Mice will be anesthetized with gaseous isoflurane (3% induction, 0.5-2.5%) maintenance). Anesthetized animals will be cast-immobilized bilaterally with the ankle joint in the plantar-flexed position to induce maximal atrophy of the soleus and plantaris muscle. Both hind limbs and the caudal fourth of the body will be encompassed by a plaster cast. A thin layer of padding will be placed underneath the cast in order to prevent abrasions. In addition, to prevent the animals from chewing on the cast, one strip of fiberglass material will be applied over the plaster. The mice will be monitored on a daily basis for chewed plaster, abrasions, venous occlusion, and problems with ambulation.
Preparation of permeabilized muscle fibers. Permeabilized muscle fibers will be prepared as previously described. Korshunov, et al., FEBS Lett 416:15-18, 1997; Tonkonogi, et al., Pfliigers Arch 446:261-269, 2003. Briefly, the muscle will be trimmed of connective tissue and cut down to fiber bundles (4-8 mg wet wt). Under a microscope and using a pair of extra-sharp forceps, the muscle fibers will be gently separated in ice-cold buffer X containing 60 mM K-MES, 35 mM KCl, 7.23 mM K2EGTA, 2.77 mM CaK2EGTA, 20 mM imidazole, 0.5 mM DTT, 20 mM taurine, 5.7 mM ATP, 15 mM PCr, and 6.56 mM MgCl2·6 H2O (pH 7.1, 295 mosmol/kg H2O) to maximize surface area of the fiber bundle. To permeabilize the myofibers, each fiber bundle will be incubated in ice-cold buffer X containing 50 μg/mL saponin on a rotator for 30 minutes at 4° C. The permeabilized bundles will be washed in ice-cold buffer Z, containing 110 mM K-MES, 35 mM KCl, 1 mM EGTA, 5 mM K2HPO4, and 3 mM MgCl2, 0.005 mM glutamate, and 0.02 mM malate and 0.5 mg/mL BSA, pH 7.1.
Mitochondrial respiration in permeabilized fibers. Respiration will be measured polarographically in a respiration chamber maintained at 37° C. (Hansatech Instruments, United Kingdom). After the respiration chamber will be calibrated, permeabilized fiber bundles will be incubated with 1 mL of respiration buffer Z containing 20 mM creatine to saturate creatine kinase (Saks, et al., Mol. Cell Biochem. 184:81-100, 1998; Walsh, et al., J. Physiol. 537:971-978,2001). Flux through complex I will be measured using 5 mM pyruvate and 2 mM malate. The maximal respiration (state 3), defined as the rate of respiration in the presence of ADP, will be initiated by adding 0.25 mM ADP to the respiration chamber. Basal respiration (state 4) will be determined in the presence of 10 µg/mL oligomycin to inhibit ATP synthesis. The respiratory control ratio (RCR) will be calculated by dividing state 3 by state 4 respiration.
Mitochondrial ROS production. Mitochondrial ROS production will be determined using Amplex™ Red (Molecular Probes, Eugene, OR, U.S.A.). The assay will be performed at 37° C. in 96-well plates using succinate as the substrate. Superoxide dismutase (SOD) will be added at 40 units/mL to convert all superoxide into H2O2. Resorufin formation (Amplex™ Red oxidation by H2O2) will be monitored at an excitation wavelength of 545 nm and an emission wavelength of 590 nm using a multi-well plate reader fluorometer (SpectraMax, Molecular Devices, Sunnyvale, CA, U.S.A.). […]

[1] = Example 17: linoleic acid peroxidation induced by ABAP; type: biochemical
Description: Linoleic acid peroxidation will be induced using the water-soluble initiator 2,2′-azobis(2-amidinopropane) (ABAP), and lipid peroxidation will be detected by the formation of conjugated dienes, monitored spectrophotometrically at 236 nm (E. Longoni, W. A. Pryor, P. Marchiafava, Biochem. Biophys. Res. Commun. 233, 778-780 (1997)).
5 mL of 0.5 M ABAP and varying concentrations of peptide conjugates; aromatic-cationic peptides (an equivalent molar dose of aromatic-cationic peptide based on the concentration of the aromatic-cationic peptide administered in the peptide conjugate treatment group); SPN10(s) (an equivalent molar dose of SPN10 based on the concentration of SPN10 administered in the peptide conjugate treatment group); or SPN10(s) in combination with aromatic-cationic peptides (e.g., an equivalent molar dose of SPN10 based on the concentration of SPN10 administered in the peptide conjugate treatment group and an equivalent molar dose of aromatic-cationic peptide based on the concentration of aromatic-cationic peptide administered in the peptide conjugate treatment group) will be incubated in 2.4 mL linoleic acid suspension until autoxidation rate becomes constant.

Structure (SMILES): N=C(N)NCCC[C@H](NC(=O)[C@@H](N)Cc1c[nH]c2ccccc12)C(=O)N[C@@H](Cc1c[nH]c2ccccc12)C(=O)N[C@@H](CCCCN)C(N)=O [SPN10, H-L-Trp-L-Arg-L-Trp-L-Lys-NH2] (H-WRWK-NH2)
- oxidative damage in soleus muscle, lipid peroxidation via 4-hydroxynonenal (4-HNE) (hind limb casted mice; casting): overcome
- protease activity in the soleus muscle (hind limb casted mice; casting): attenuated or prevented
- increase in H2O2 production by mitochondria isolated from soleus muscle (hind limb casted mice; casting for 7 days): prevented
- decrease in soleus muscle weight and mitochondrial state 3 respiration (hind limb casted mice; hind limb casting for 7 days): reversed
- calpain-1, caspase-3 and caspase-12 proteolytic degradation of muscle (hind limb casted mice; mouse, in vivo): prevented
- oxidative damage and associated muscle weakness induced by hind limb immobilization (hind limb casted mice; mouse, in vivo): prevent
- peroxidation of linoleic acid [1]: dose-dependently inhibit the peroxidation of linoleic acid
